{"source": "patent US20110256236A1", "about": "(priority 2010, published 2011)", "key": {"KG-1a cells": {"tested_on": "KG-1a cells", "settings": "48 hours", "procedure": "The KG-1a cells, which are an early phenotype of human acute myeloid leukemia (American Type Culture Collection, Manassas, Va.), were grown in complete growth medium [Iscove's Modified Dulbeco's Medium (American Type Culture Collection, Manassas, Va.)] supplemented with 20% fetal bovine serum (Sigma-Aldrich, UK) and 1% Penicillin-Streptomycin (GIBCO Invitrogen Corporation, Carlsbad, Calif.) at 37° C. in a humidified 5% CO2 incubator.\nThe KG-1a cells were cultured for 48 hours in 12-well tissue culture plates, each containing complete growth medium at a concentration of 2×10^6 cells 1 ml, and each well contained a total volume of two milliliters. Thalidomide (TOCRIS Bioscience, Ellisville, Mo.) was added at a concentration of 5 mg/L whether used alone or in combination with other chemotherapeutic agents. Interleukin-2 (Proleukin®, Aldesleuken for injection) (CHIRON Therapeutics, Emeryville, Calif.) was added at a concentration of 200 IU/ml whether used alone or in combination with thalidomide or arsenic trioxide. Arsenic trioxide (Sigma-Aldrich, Inc., St. Louis, Mo.) was added at concentrations of 2 μM and 4 μM with and without 100 μM of ascorbic acid in the first flow cytometry study, and at 4 μM in the rest of the studies either alone or combined with thalidomide and interleukin-2. A control culture containing neither thalidomide nor interleukin-2 nor arsenic trioxide was set up in conditions otherwise identical. All the control and treated cultures were set in duplicate and incubated for 48 hours at 37° C. in a humidified 5% CO2 incubator.\nThe detection of apoptosis and necrosis by Annex in V-FITC assay using flow cytometric analysis was carried out as described in the Annexin V-FITC Apoptosis Detection Kit (BioVision, Inc., Mountain View, Calif.) manual. Staurosporine (Sigma-Aldrich, Inc., St. Louis, Mo.) was used as a positive control at a concentration of 10 μM and was incubated only for 24 hours with the cells. Briefly, after the KG-1a cells were incubated for 48 hours, they were harvested by centrifugation at 1,300 RPM for five minutes. Cells were resuspended in 500 μl of 1× binding buffer. Then 5 μl of Annexin V-FITC and 5 μl of propidium iodide (PI) were added to all tubes (except the negative control which contained no staining and no treatment; for the Annexin V-FITC controls only the Annexin V-FITC was added; and for the Propidium Iodide control only PI was added). All tubes were incubated at room temperature for five minutes in the dark.\nResults were subjected to one way ANOVA. Statistical significant differences between means was set at p<0.05."}, "MCF-7": {"tested_on": "MCF-7", "settings": "MCF-7 cell line; Du et al. 2005; read-out: IC50 (inhibitory concentration of 50%), tumor growth; cited from earlier work"}, "HL-60": {"tested_on": "HL-60", "settings": "HL-60 cell line; Du et al. 2005; read-out: IC50 (inhibitory concentration of 50%), tumor growth; cited from earlier work"}, "PML/RAR-α fusion protein": {"target": "T1, PML/RAR-α fusion protein (Homo sapiens, UniProt P10276+P29590)", "T1 construct": "host or cells: NB4 cells (endogenous t(15;17) fusion)", "T1 sequence (P29590+P10276 with tags, fused parts or gaps)": "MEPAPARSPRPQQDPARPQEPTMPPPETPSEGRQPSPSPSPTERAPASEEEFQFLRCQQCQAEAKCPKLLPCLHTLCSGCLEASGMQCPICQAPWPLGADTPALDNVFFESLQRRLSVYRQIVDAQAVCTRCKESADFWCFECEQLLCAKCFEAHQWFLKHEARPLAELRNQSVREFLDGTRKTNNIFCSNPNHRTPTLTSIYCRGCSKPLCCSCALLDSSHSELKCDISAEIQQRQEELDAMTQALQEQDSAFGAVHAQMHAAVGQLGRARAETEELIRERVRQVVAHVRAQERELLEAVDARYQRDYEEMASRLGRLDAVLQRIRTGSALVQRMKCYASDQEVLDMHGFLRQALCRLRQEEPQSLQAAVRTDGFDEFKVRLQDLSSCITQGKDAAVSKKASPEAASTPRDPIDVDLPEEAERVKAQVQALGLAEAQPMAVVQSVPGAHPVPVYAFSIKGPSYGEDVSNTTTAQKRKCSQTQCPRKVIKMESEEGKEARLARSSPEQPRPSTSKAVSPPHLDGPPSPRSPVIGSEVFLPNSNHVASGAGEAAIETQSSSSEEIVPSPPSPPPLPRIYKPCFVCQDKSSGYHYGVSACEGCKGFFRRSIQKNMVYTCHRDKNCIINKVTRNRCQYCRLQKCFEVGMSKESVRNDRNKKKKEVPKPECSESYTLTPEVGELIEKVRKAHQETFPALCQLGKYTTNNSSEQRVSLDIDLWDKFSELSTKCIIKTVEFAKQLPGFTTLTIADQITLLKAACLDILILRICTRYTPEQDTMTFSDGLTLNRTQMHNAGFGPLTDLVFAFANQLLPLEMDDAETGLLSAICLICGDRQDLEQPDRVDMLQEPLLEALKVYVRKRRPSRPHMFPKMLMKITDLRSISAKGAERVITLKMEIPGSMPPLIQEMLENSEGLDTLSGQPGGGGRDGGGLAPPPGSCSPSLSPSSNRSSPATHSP", "design": "unit not given here", "settings": "NB4 cells; cited from earlier work"}, "APL cell line NB4": {"tested_on": "APL cell line NB4", "design": "unit not given here", "settings": "APL studies, cited from earlier work"}, "[1]": {"settings": "thalidomide 5 mg/L, As2O3 4 μM, IL-2 200 IU/ml, alone or combined"}, "[2]": {"settings": "As2O3 2 μM, with or without ascorbic acid 100 μM"}, "[3]": {"settings": "As2O3 4 μM, with or without ascorbic acid 100 μM"}}, "note": "Where two headings read alike, the source gives them in different places.", "data": [{"compound": "O=C1CCC(N2C(=O)c3ccccc3C2=O)C(=O)N1", "note": "(stereo not drawn) [Thalidomide, α-(N-phthalimido) glutarimide]", "values": [{"measurement": "% Early apoptosis", "setting": "KG-1a cells; [1]", "result": 7.92, "unit": "%"}, {"measurement": "% Late apoptosis", "setting": "KG-1a cells; [1]", "result": 49.385, "unit": "%"}, {"measurement": "% Necrosis", "setting": "KG-1a cells; [1]", "result": 1.155, "unit": "%"}, {"measurement": "% Late apoptosis", "setting": "KG-1a cells; thalidomide 5 mg/L, As2O3 4 μM, IL-2 200 IU/ml, alone or combined, listed as thalidomide", "result": 49.39, "unit": "%"}, {"measurement": "IC50", "setting": "MCF-7", "result": "18.4 ± 2.34", "unit": "µM"}, {"measurement": "IC50", "setting": "HL-60", "result": "22.1 ± 2.15", "unit": "µM"}]}, {"compound": "arsenic trioxide [As2O3]", "values": [{"measurement": "concentrations inducing degradation of PML/RAR-α (and wild type PML)", "setting": "PML/RAR-α fusion protein", "result": "0.5-2.0"}, {"measurement": "% Early apoptosis", "setting": "KG-1a cells; [2]", "result": 14.50, "unit": "%"}, {"measurement": "% Late apoptosis", "setting": "KG-1a cells; [2]", "result": 6.88, "unit": "%"}, {"measurement": "% Live Cells", "setting": "KG-1a cells; [2]", "result": 75.94, "unit": "%"}, {"measurement": "% Necrotic Cells", "setting": "KG-1a cells; [2]", "result": 2.68, "unit": "%"}, {"measurement": "% Early apoptosis", "setting": "KG-1a cells; [3]", "result": 20.87, "unit": "%"}, {"measurement": "% Late apoptosis", "setting": "KG-1a cells; [3]", "result": 8.31, "unit": "%"}, {"measurement": "% Live Cells", "setting": "KG-1a cells; [3]", "result": 69.56, "unit": "%"}, {"measurement": "% Necrotic Cells", "setting": "KG-1a cells; [3]", "result": 1.26, "unit": "%"}, {"measurement": "% Early apoptosis", "setting": "KG-1a cells; [1]", "result": 10.095, "unit": "%"}, {"measurement": "% Late apoptosis", "setting": "KG-1a cells; [1]", "result": 16.965, "unit": "%"}, {"measurement": "% Necrosis", "setting": "KG-1a cells; [1]", "result": 0.59, "unit": "%"}, {"measurement": "cytotoxic effect (in words)", "setting": "KG-1a cells; [1]", "result": "modest cytotoxic effect"}, {"measurement": "% Late apoptosis", "setting": "KG-1a cells; thalidomide 5 mg/L, As2O3 4 μM, IL-2 200 IU/ml, alone or combined, listed as Arsenic trioxide", "result": 16.97, "unit": "%"}, {"measurement": "concentrations inducing partial differentiation", "setting": "APL cell line NB4; low concentrations", "result": "0.1-0.5"}, {"measurement": "concentrations inducing apoptosis", "setting": "APL cell line NB4; relatively high concentrations", "result": "0.5-2.0"}]}]}
